Experimental data: publication PMC3598812, “Evaluation of Anti-Hyperalgesic and Analgesic Effects of Two Benzodiazepines in Human Experimental Pain: A Randomized Placebo-Controlled Study” (PLoS ONE, 2013)
Entries after “also recorded” stand apart in the source; their conditions may differ. Like-named read-outs stand apart in the source and are kept apart here.

Tests used:
[1] = Pharmacokinetics of clobazam in plasma (LC-MS/MS); type: in vivo; details: human, po, 20 mg, clobazam 20 mg oral, mean (SD)
healthy male volunteers [2] = test: Intramuscular repeated (20 stimuli) electrical stimulation, VAS; type: in vivo, human; set-up: AUC of VAS during 20 intramuscular electrical stimuli: unit not given beside the values; details: for Maximal VAS during 20 intramuscular electrical stimuli: VAS 0-10; for Maximal VAS during 20 intramuscular electrical stimuli / AUC of VAS during 20 intramuscular electrical stimuli: mean (SD)
Method: The stimulus burst used for single stimulus was repeated for a train of 20 pulses at 2 Hz, at an intensity corresponding to the temporal summation threshold. During this 10 s stimulation, pain intensity was continuously rated by the subject with an electronic VAS, and the area under the curve (AUC) was computed. Additionally, the maximal VAS during stimulation was recorded.
A needle was placed in the tibialis anterior muscle, 14 cm distal from the caudal end of the patella and 20 mm in depth. The same single and repeated stimulation patterns and the same procedure described for cutaneous stimulation were used.

[3] = trial protocol, cited from earlier work
healthy male volunteers [4] = test: Psychomotor performance, digit symbol substitution test (DSST); details: for DSST score compared with tolterodine at 120 min: main analysis, pairwise comparison within the time-points; for DSST-score: single oral dose (clobazam 20 mg, clonazepam 1 mg, tolterodine 1 mg), mean (SD)
Method: The psychomotor performance was assessed by the digit symbol substitution test (DSST), a subscale of the Wechsler Adult Intelligence Scale. The DSST evaluates the ability to concentrate and modifications in processing information [23]. It is a two-minute paper-and-pencil test. The subject was asked to replace digits with corresponding symbols according to a code given on the same sheet of paper. The score consists in the total number and the correct number of symbols drawn.
Pressure pain, conditioned pain modulation (CPM), intramuscular electrical pain tests, cuff algometry and DSST were performed 120 min after drug intake.
After 15 min, the whole battery of tests was performed.

[5] = subgroup (n = 8) with peak plasma level below 180 minutes and at least 200 µg/ml
[6] = baseline before medication, per drug session
[7] = single oral dose (clobazam 20 mg, clonazepam 1 mg, tolterodine 1 mg), 120 min after medication
[8] = single oral dose (clobazam 20 mg, clonazepam 1 mg, tolterodine 1 mg), after flumazenil 0.2 mg iv
[9] = 120 min after drug administration

Compound: CN1C(=O)CC(=O)N(c2ccccc2)c2cc(Cl)ccc21 [Clobazam]
- AUC ([1]; all volunteers (n = 16)): 5460 ng·h/mL
- Cmax ([1]; all volunteers (n = 16)): 370 ng/mL
- Tmax ([1]; all volunteers (n = 16)): 2.28 h
- half-life ([1]; all volunteers (n = 16)): 19 h
- AUC [1, 5]: 6160 ng·h/mL
- Cmax [1, 5]: 470 ng/mL
- Tmax [1, 5]: 1.64 h
- half-life [1, 5]: 17.5 h
- Maximal VAS during 20 intramuscular electrical stimuli (healthy male volunteers [2]; [6]): 4.2 (1.5)
- Maximal VAS during 20 intramuscular electrical stimuli (healthy male volunteers [2]; [7]): 4.5 (2.5)
- Maximal VAS during 20 intramuscular electrical stimuli (healthy male volunteers [2]; [8]): 4.0 (1.9)
- AUC of VAS during 20 intramuscular electrical stimuli (healthy male volunteers [2]; [6]): 284 (149)
- AUC of VAS during 20 intramuscular electrical stimuli (healthy male volunteers [2]; [7]): 309 (188)
- AUC of VAS during 20 intramuscular electrical stimuli (healthy male volunteers [2]; [8]): 292 (169)
- Time to maximum plasma concentration ([3]; after 10 mg in healthy volunteers): 1.3 ± 0.2 h
- Time to maximum plasma concentration ([3]; after 20 mg in healthy volunteers): 1.6 h
- Time to maximum plasma concentration ([3]; general statement): about 2 h
- Bioavailability ([3]; drug background): 90%
- Half life (t1/2) ([3]; drug background): circa 20 h
- DSST score compared with tolterodine at 120 min (healthy male volunteers [4]): not
- DSST-score (healthy male volunteers [4]; [9]): 74.9 (14.7)
- DSST-score (healthy male volunteers [4]; after flumazenil 0.2 mg iv): 81.1 (12.1)

Compound: O=C1CN=C(c2ccccc2Cl)c2cc([N+](=O)[O-])ccc2N1 [Clonazepam]
- Maximal VAS during 20 intramuscular electrical stimuli (healthy male volunteers [2]; [6]): 4.3 (1.4)
- Maximal VAS during 20 intramuscular electrical stimuli (healthy male volunteers [2]; [7]): 3.2 (2.4)
- Maximal VAS during 20 intramuscular electrical stimuli (healthy male volunteers [2]; [8]): 2.8 (2.0)
- AUC of VAS during 20 intramuscular electrical stimuli (healthy male volunteers [2]; [6]): 307 (138)
- AUC of VAS during 20 intramuscular electrical stimuli (healthy male volunteers [2]; [7]): 236 (204)
- AUC of VAS during 20 intramuscular electrical stimuli (healthy male volunteers [2]; [8]): 209 (178)
- Maximal VAS during 20 intramuscular electrical stimuli, comparison among drugs (healthy male volunteers [2]; subgroup analysis (n = 8), pairwise comparisons vs tolterodine and clobazam): lower values; also recorded: Significantly lower maximal VAS with clonazepam, compared with tolterodine and clobazam in the subgroup analysis
- DSST score compared with tolterodine at 120 min (healthy male volunteers [4]): significantly associated to a lower score
- DSST-score (healthy male volunteers [4]; [9]): 69.3 (15.8)
- DSST-score (healthy male volunteers [4]; after flumazenil 0.2 mg iv): 79.1 (14.5)
- Psychomotor performance (DSST) at 120 minutes compared with the other two drugs (healthy male volunteers [4]; subgroup analysis (n = 8), pairwise multiple comparison): lower psychomotor performance
- Change of DSST score after flumazenil injection (healthy male volunteers [4]; subgroup analysis (n = 8), within drug): significantly increased

Compound: Cc1ccc(O)c([C@H](CCN(C(C)C)C(C)C)c2ccccc2)c1 [Tolterodine]
- Maximal VAS during 20 intramuscular electrical stimuli (healthy male volunteers [2]; [6]): 4.5 (1.6)
- Maximal VAS during 20 intramuscular electrical stimuli (healthy male volunteers [2]; [7]): 3.8 (2.4)
- Maximal VAS during 20 intramuscular electrical stimuli (healthy male volunteers [2]; [8]): 4.1 (2.5)
- AUC of VAS during 20 intramuscular electrical stimuli (healthy male volunteers [2]; [6]): 323 (127)
- AUC of VAS during 20 intramuscular electrical stimuli (healthy male volunteers [2]; [7]): 286 (198)
- AUC of VAS during 20 intramuscular electrical stimuli (healthy male volunteers [2]; [8]): 316 (206)
- Oral bioavailability ([3]; ref Micromedex 2009): 77%
